According to the supplement of paper PMC10307832:

Tests used:
Experiment in all cases: relative viability (nuclei count vs DMSO), 5 days (fraction); higher = more cells survive
[1] = compound: Cn1cc(-c2cnn3c(N)c(Br)c([C@@H]4CCCNC4)nc23)cn1 + CS(=O)(=O)CCNCc1ccc(-c2ccc3ncnc(Nc4ccc(OCc5cccc(F)c5)c(Cl)c4)c3c2)o1 [Lapatinib] (partner 2 µM)
Outline: (§1)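 Relative viability divides the nuclei count in treated wells by that in vehicle wells. Lung cancer cell lines were seeded in 1536-well plates, dosed by pin tool the next day, and fixed and stained after 5 days in one step with final 0.05% Triton X-100, 1% formaldehyde and 1 ug/ml Hoechst. Dosing was a single drug or a fixed anchor-drug dose plus five library-drug doses (not always all listed) in √10 steps, and values are medians of duplicate plates imaged at 4×.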

[2] = compound: Cn1cc(-c2cnn3c(N)c(Br)c([C@@H]4CCCNC4)nc23)cn1 + C[C@@H](Oc1cc(-c2cnn(C3CCNCC3)c2)cnc1N)c1c(Cl)ccc(F)c1Cl [Crizotinib] (partner 1 µM)
Outline: as §1

[3] = compound: Cn1cc(-c2cnn3c(N)c(Br)c([C@@H]4CCCNC4)nc23)cn1 + Cc1nc(Nc2ncc(C(=O)Nc3c(C)cccc3Cl)s2)cc(N2CCN(CCO)CC2)n1 [Dasatinib] (partner 0.075 µM)
Outline: as §1

[4] = compound: Cn1cc(-c2cnn3c(N)c(Br)c([C@@H]4CCCNC4)nc23)cn1 + Nc1nc2[nH]cc(CCc3ccc(C(=O)N[C@@H](CCC(=O)O)C(=O)O)cc3)c2c(=O)[nH]1 [Pemetrexed] (partner 0.2 µM)
Outline: as §1

Cell Line | relative viability ([1]; first compound 0.05 µM) | relative viability ([1]; first compound 0.1581 µM) | relative viability ([1]; first compound 0.5 µM) | relative viability ([1]; first compound 1.581 µM) | relative viability ([1]; first compound 5 µM) | relative viability ([2]; first compound 0.05 µM) | relative viability ([2]; first compound 0.1581 µM) | relative viability ([2]; first compound 0.5 µM) | relative viability ([2]; first compound 1.581 µM) | relative viability ([2]; first compound 5 µM) | relative viability ([3]; first compound 0.05 µM) | relative viability ([3]; first compound 0.1581 µM) | relative viability ([3]; first compound 0.5 µM) | relative viability ([3]; first compound 1.581 µM) | relative viability ([3]; first compound 5 µM) | relative viability ([4]; first compound 0.05 µM) | relative viability ([4]; first compound 0.1581 µM) | relative viability ([4]; first compound 0.5 µM) | relative viability ([4]; first compound 1.581 µM) | relative viability ([4]; first compound 5 µM)
HCC-366 | 1.05 | 1.32 | 0.66 | 0.649 | 0.382 | 0.53 | 0.737 | 0.474 | 0.405 | 0.209 | 0.644 | 0.562 | 0.628 | 0.467 | 0.22 | 0.166 | 0.108 | 0.128 | 0.0814 | 0.0667
HOP-62 | 1.05 | 1.27 | 1.08 | 0.896 | 0.792 | 0.999 | 1.07 | 1.01 | 0.925 | 0.884 | 0.66 | 0.702 | 0.568 | 0.589 | 0.316 | 0.309 | 0.252 | 0.307 | 0.22 | 0.203
NCI-H1944 | 0.823 | 0.832 | 0.761 | 0.605 | 0.577 | 0.951 | 1.21 | 1.09 | 0.931 | 0.717 | 0.23 | 0.206 | 0.197 | 0.192 | 0.179 | 0.688 | 0.511 | 0.541 | 0.337 | 0.152
SW 1573 | 1.14 | 1.22 | 1.15 | 1.01 | 1.1 | 0.794 | 1.07 | 0.9 | 0.747 | 0.73 | 0.604 | 0.631 | 0.455 | 0.247 | 0.453 | 1 | 0.759 | 0.832 | 0.526 | 0.824
LU99A | 1.04 | 1.11 | 0.998 | 0.858 | 0.611 | 0.55 | 0.573 | 0.551 | 0.482 | 0.31 | 0.397 | 0.51 | 0.485 | 0.405 | 0.244 | 0.19 | 0.144 | 0.139 | 0.124 | 0.129
NCI-H647 | 1.43 | 1.22 | 1.17 | 0.497 | 0.275 | 1.27 | 1.33 | 0.883 | 0.675 | 0.232 | 0.212 | 0.326 | 0.143 | 0.12 | 0.123 | 0.174 | 0.104 | 0.104 | 0.114 | 0.0596
A-427 | 0.979 | 1.14 | 0.986 | 0.839 | 0.959 | 0.938 | 1.02 | 0.922 | 0.725 | 0.566 | 0.863 | 0.816 | 0.633 | 0.583 | 0.358 | 0.938 | 0.99 | 1.03 | 0.837 | 0.46
COR-L 105 | 0.323 | 0.386 | 0.393 | 0.354 | 0.311 | 0.739 | 0.722 | 0.713 | 0.535 | 0.462 | 0.318 | 0.336 | 0.341 | 0.29 | 0.309 | 0.939 | 0.921 | 1.08 | 0.92 | 0.82
NCI-H2126 | 0.743 | 0.847 | 0.753 | 0.642 | 0.817 | 1.1 | 1.09 | 1.07 | 0.932 | 1.03 | 0.581 | 0.58 | 0.568 | 0.506 | 0.488 | 0.662 | 0.756 | 0.753 | 0.566 | 0.454
NCI-H460 | 1.12 | 1.37 | 1.15 | 0.288 | 0.591 | 1.01 | 1.36 | 1.03 | 0.842 | 0.3 | 0.533 | 0.437 | 0.483 | 0.317 | 0.144 | 0.0569 | 0.0582 | 0.0504 | 0.0664 | 0.0552
SK-LU-1 | 0.871 | 0.585 | 0.758 | 0.321 | 0.19 | 0.877 |  | 0.483 | 0.33 | 0.264 | 0.173 | 0.132 | 0.148 | 0.164 | 0.118 | 0.955 | 0.612 | 0.536 | 0.321 | 0.227
NCI-H322M | 0.488 | 0.585 | 0.621 | 0.493 | 0.512 | 0.874 | 0.962 | 0.884 | 0.785 | 0.576 | 0.268 | 0.279 | 0.268 | 0.231 | 0.245 | 0.602 | 0.548 | 0.561 | 0.49 | 0.363
EKVX | 0.204 | 0.215 | 0.192 | 0.193 | 0.184 | 0.942 | 1.27 | 1.09 | 0.821 | 0.945 | 0.376 | 0.549 | 0.54 | 0.496 | 0.578 | 0.497 | 0.293 | 0.307 | 0.241 | 0.206
NCI-H1734 | 1.06 | 1.08 | 0.917 | 0.944 | 0.778 | 0.682 | 0.804 | 0.633 | 0.661 | 0.393 | 0.469 | 0.506 | 0.435 | 0.345 | 0.338 | 0.411 | 0.384 | 0.347 | 0.307 | 0.265
NCI-H520 | 0.819 | 0.685 | 0.649 | 0.705 | 0.707 | 0.743 | 0.821 | 0.694 | 0.601 | 0.589 | 0.178 | 0.258 | 0.191 | 0.176 | 0.165 | 0.596 | 0.584 | 0.554 | 0.452 | 0.296
EPLC-272H | 0.849 | 0.991 | 0.843 | 0.688 | 0.674 | 0.943 | 1.07 | 1 | 0.945 | 0.826 | 0.34 | 0.339 | 0.333 | 0.286 | 0.162 | 0.268 | 0.186 | 0.139 | 0.106 | 0.098
